# Laboratory results as given in patent US9969687B2, “Compounds useful as CCR9 modulators” (Norgine B.V., priority 2013, dated 2018).
# Legend:
# CCR9 [1] = biological target: T1, CCR9 (Homo sapiens (Human), UniProt P51686); test: FLIPR calcium flux assay using MOLT4 cells, TECK stimulation; type: cell-based; settings: MOLT4 cells (human T-cell line)
# Experimental: Biological Activity: FLIPR Assay Using MOLT4 Cells
# A calcium flux assay was used to determine the ability of the compounds to interfere with the binding between CCR9 and its chemokine ligand (TECK) in MOLT4 cells (a human T-cell line). MOLT4 cells were seeded (100,000 cells/well) in corning cell culture plates (Cat #3603) in assay buffer (1×HBSS, 20 mM HEPES) containing 2.5 mM Probenecid. The plate was centrifuged at 1200 rpm for 3 minutes and incubated at 37° C./5% CO2 for 2 hours. A 0.3× Fluo-4 NW calcium dye was prepared in assay buffer containing 5 mM Probenecid and stored in the dark. Each well was loaded with 25 μl of 0.3× Fluo-4 NW calcium dye and incubated at 37° C./5% CO2 for 60 minutes and then at room temperature for 30 minutes. A half-log serially diluted concentration response curve was prepared at a 4× concentration for each (10 μM-0.1 nM final assay concentration) and 25 μL of the compound then transferred to the cells (100 μL final volume) for 60 minutes prior to stimulation (30 minutes at 37° C./5% CO2 and 30 minutes at room temperature). […] The increased in intracellular calcium levels was measured with the FLIPR instrument. The potency of the compound as CCR9 antagonist was calculated as an IC50 using GraphPad Prism software (variable slope four parameter). The Ki of the compound was determined from the IC50 values using the following equation. IC50/1+(Agonist (TECK) conc. used in assay/EC50 of agonist (TECK) generated on day of experiment) Ki calculation: […]
# CCR9 [2] = biological target: T1, CCR9; test: FLIPR calcium flux assay using hCCR9 over expressed cells (Chem1-hCCR9), TECK stimulation; type: cell-based; settings: Chem1-hCCR9 overexpressing cells
# Experimental: Biological Activity: FLIPR Assay Using hCCR9 Over Expressed Cells
# A calcium flux assay was used to determine the ability of the compounds to interfere with the binding between CCR9 and its chemokine ligand (TECK) in Chem1-hCCR9 overexpressing cells. hCCR9 overexpressing cells were seeded (25,000 cells/well) into black Poly-D-Lysine coated clear bottom 96-well plates (BD Biosciences, Cat #356640) and incubated overnight at 37° C./5% CO2 in a humidified incubator. Media was aspirated and cells washed twice with 100 μL assay buffer (1×HBSS, 20 mM HEPES) containing 2.5 mM Probenecid. A 0.3× Fluo-4 NW calcium dye was prepared in assay buffer containing 5 mM Probenecid and stored in the dark. Each well was loaded with 100 μL of 0.3× Fluo-4 NW calcium dye and incubated at 37° C./5% CO2 for 60 minutes and then at room temperature for 30 minutes. A half-log serially diluted concentration response curve was prepared at a 3× final assay concentration for each compound (10 μM-0.1 nM final assay concentration) and 50 μL of the compound then transferred to the cells (150 μL final volume) for 60 minutes prior to stimulation (30 minutes at 37° C./5% CO2 and 30 minutes at room temperature). TECK was diluted to 4× its EC80 in assay buffer (containing 0.1% [w/v] bovine serum albumin [BSA]) and 50 μL dispensed through the fluorometric imaging plate reader (FLIPR) instrument to stimulate the cells (200 μL final volume). The increase in intracellular calcium levels was measured with the FLIPR instrument. The potency of the compound as a CCR9 antagonist was calculated as an IC50 using GraphPad Prism software (variable slope four parameter). The Ki of the compound was determined from the IC50 values using the following equation. IC50/1+(Agonist (TECK) conc. used in assay/EC50 of agonist (TECK) generated on day of experiment) Ki calculation: […]
# T1 sequence (P51686 whole entry): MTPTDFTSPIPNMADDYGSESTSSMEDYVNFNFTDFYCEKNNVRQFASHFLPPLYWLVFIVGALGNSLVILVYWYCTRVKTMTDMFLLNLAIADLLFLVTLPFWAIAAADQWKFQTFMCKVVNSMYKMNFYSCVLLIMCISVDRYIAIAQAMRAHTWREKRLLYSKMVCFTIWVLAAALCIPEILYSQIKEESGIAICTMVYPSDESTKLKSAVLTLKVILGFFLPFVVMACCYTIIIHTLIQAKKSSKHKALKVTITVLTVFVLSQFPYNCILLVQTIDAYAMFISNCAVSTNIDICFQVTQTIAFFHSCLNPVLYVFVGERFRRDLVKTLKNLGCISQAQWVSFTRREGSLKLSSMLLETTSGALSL
Compound,Ki (CCR9 [1]) [nM],Ki (CCR9 [2]) [nM]
"CC(C)(C)c1ccc(S(=O)(=O)Nc2cccc3c2C(=O)N(c2cccnc2)C3=O)cc1 [Compound 1, 4-tert-Butylphenylsulfonic acid (1,3-dioxo-2-(pyridin-3-yl)-2,3-dihydro-1H-isoindol-4-yl)-amide]",479,1240
O=C1c2cccc(NS(=O)(=O)c3ccc(C(F)(F)F)cc3)c2C(=O)N1c1cccnc1 [Compound 6],,5630
"CC(C)(C)c1ccc(S(=O)(=O)Nc2ccc(Cl)c3c2C(=O)N(c2cccnc2)C3=O)cc1 [Compound 43, 4-(tert-butyl)-N-(7-chloro-1,3-dioxo-2-(pyridin-3-yl)isoindolin-4-yl)benzenesulfonamide]",25,42
"CC(C)(C)c1ccc(S(=O)(=O)Nc2ccc(Cl)c3c2C(=O)N(c2ccc[n+]([O-])c2)C3=O)cc1 [Compound 44, 3-(4-(4-(tert-butyl)phenylsulfonamido)-7-chloro-1,3-dioxoisoindolin-2-yl)pyridine 1-oxide]",16,179
O=C1c2c(Cl)ccc(NS(=O)(=O)c3ccc(OC(F)(F)F)cc3)c2C(=O)N1c1cccnc1 [Compound 45],52,314
O=C1c2c(Cl)ccc(NS(=O)(=O)c3ccc(C(F)(F)F)cc3)c2C(=O)N1c1cccnc1 [Compound 47],34,309
"CC(C)(C)c1ccc(S(=O)(=O)Nc2ccc(Cl)c3c2C(=O)N(Cc2cccnc2)C3=O)cc1 [Compound 64, 4-(tert-butyl)-N-(7-chloro-1,3-dioxo-2-(pyridin-3-ylmethyl)isoindolin-4-yl)benzenesulfonamide]",22,27
"CC(C)(C)c1ccc(S(=O)(=O)Nc2ccc(Cl)c3c2C(=O)N(Cc2ccc[n+]([O-])c2)C3=O)cc1 [Compound 65, 3-((4-(4-(tert-butyl)phenylsulfonamido)-7-chloro-1,3-dioxoisoindolin-2-yl)methyl)pyridine 1-oxide]",13,74
O=C1c2c(Cl)ccc(NS(=O)(=O)c3ccc(C(F)(F)F)cc3)c2C(=O)N1Cc1cccnc1 [Compound 66],115,269
"CC(C)(C)c1ccc(S(=O)(=O)Nc2ccc(C#N)c3c2C(=O)N(Cc2cccnc2)C3=O)cc1 [Compound 82, 4-(tert-butyl)-N-(7-cyano-1,3-dioxo-2-(pyridin-3-ylmethyl)isoindolin-4-yl)benzenesulfonamide]",19,98
"COc1cncc(N2C(=O)c3c(Cl)ccc(NS(=O)(=O)c4ccc(C(C)(C)C)cc4)c3C2=O)c1 [Compound 90, 4-(tert-butyl)-N-(7-chloro-2-(5-methoxypyridin-3-yl)-1,3-dioxoisoindolin-4-yl)benzenesulfonamide]",22,174
CCOc1cncc(N2C(=O)c3c(Cl)ccc(NS(=O)(=O)c4ccc(C(C)(C)C)cc4)c3C2=O)c1 [Compound 103],128,242
"Cc1cncc(N2C(=O)c3c(Cl)ccc(NS(=O)(=O)c4ccc(C(C)(C)C)cc4)c3C2=O)c1 [Compound 104, 4-(tert-butyl)-N-(7-chloro-2-(5-methylpyridin-3-yl)-1,3-dioxoisoindolin-4-yl)benzenesulfonamide]",30,239
COc1ccncc1N1C(=O)c2c(Cl)ccc(NS(=O)(=O)c3ccc(C(C)(C)C)cc3)c2C1=O [Compound 119],2,35
"CC(C)(C)c1ccc(S(=O)(=O)Nc2ccc(Cl)c3c2C(=O)N(c2cccc(C#N)c2)C3=O)cc1 [Compound 120, 4-(tert-butyl)-N-(7-chloro-2-(3-cyanophenyl)-1,3-dioxoisoindolin-4-yl)benzenesulfonamide]",74,90
N#Cc1cccc(N2C(=O)c3c(Cl)ccc(NS(=O)(=O)c4ccc(C(F)(F)F)cc4)c3C2=O)c1 [Compound 121],192,337
"CC(C)(C)c1ccc(S(=O)(=O)Nc2ccc(Cl)c3c2C(=O)N(Cc2cccc(C#N)c2)C3=O)cc1 [Compound 126, 4-(tert-butyl)-N-(7-chloro-2-(3-cyanobenzyl)-1,3-dioxoisoindolin-4-yl)benzenesulfonamide]",158,343

Compound,Ki (CCR9 [1]) [nM],Ki (CCR9 [2]) [nM]
N#Cc1cccc(CN2C(=O)c3c(Cl)ccc(NS(=O)(=O)c4ccc(C(F)(F)F)cc4)c3C2=O)c1 [Compound 128],244,447
N#Cc1cccc(CN2C(=O)c3c(Cl)ccc(NS(=O)(=O)c4ccc(F)c(C(F)(F)F)c4)c3C2=O)c1 [Compound 133],220,158
COc1cccc(N2C(=O)c3c(Cl)ccc(NS(=O)(=O)c4ccc(C(C)(C)C)cc4)c3C2=O)c1 [Compound 138],83,138
Cn1nccc1N1C(=O)c2c(Cl)ccc(NS(=O)(=O)c3ccc(C(C)(C)C)cc3)c2C1=O [Compound 144],3,23
Cn1ccc(N2C(=O)c3c(Cl)ccc(NS(=O)(=O)c4ccc(C(C)(C)C)cc4)c3C2=O)n1 [Compound 145],129,73
"CC(C)(C)c1ccc(S(=O)(=O)Nc2ccc(Cl)c3c2C(=O)N(c2cn[nH]c2)C3=O)cc1 [Compound 148, 4-(tert-butyl)-N-(7-chloro-1,3-dioxo-2-(1H-pyrazol-4-yl)isoindolin-4-yl)benzenesulfonamide]",36,94
O=C1c2c(Cl)ccc(NS(=O)(=O)c3ccc(C(F)(F)F)cc3)c2C(=O)N1c1cn[nH]c1 [Compound 149],53,397
"Cn1cnc(N2C(=O)c3c(Cl)ccc(NS(=O)(=O)c4ccc(C(C)(C)C)cc4)c3C2=O)c1 [Compound 153, 4-(tert-butyl)-N-(7-chloro-2-(1-methyl-1H-imidazol-4-yl)-1,3-dioxoisoindolin-4-yl)benzenesulfonamide]",7,43
"COC(=O)c1sccc1N1C(=O)c2c(Cl)ccc(NS(=O)(=O)c3ccc(C(C)(C)C)cc3)c2C1=O [Compound 155, methyl 3-(4-((4-(tert-butyl)phenyl)sulfonamido)-7-chloro-1,3-dioxoisoindolin-2-yl)thiophene-2-carboxylate]",44,135
Cc1ccc(NS(=O)(=O)c2ccc(C(C)(C)C)cc2)c2c1C(=O)N(Cc1cccnc1)C2=O [Compound 160],456,776
"Cc1ncccc1N1C(=O)c2c(Cl)ccc(NS(=O)(=O)c3ccc(C(C)(C)C)cc3)c2C1=O [Compound 175, 4-(tert-butyl)-N-(7-chloro-2-(2-methylpyridin-3-yl)-1,3-dioxoisoindolin-4-yl)benzenesulfonamide]",3,12
"Cc1c(N2C(=O)c3c(Cl)ccc(NS(=O)(=O)c4ccc(C(C)(C)C)cc4)c3C2=O)ccc[n+]1[O-] [Compound 176, 3-(4-(4-(tert-butyl)phenylsulfonamido)-7-chloro-1,3-dioxoisoindolin-2-yl)-2-methylpyridine 1-oxide]",6,13
CC(C)(C)c1ccc(S(=O)(=O)Nc2ccc(Cl)c3c2C(=O)N(c2sccc2C#N)C3=O)cc1 [Compound 179],16,57
Cc1ccc(N2C(=O)c3c(Cl)ccc(NS(=O)(=O)c4ccc(C(C)(C)C)cc4)c3C2=O)cn1 [Compound 182],19,58
COc1ncccc1N1C(=O)c2c(Cl)ccc(NS(=O)(=O)c3ccc(C(C)(C)C)cc3)c2C1=O [Compound 183],3,3
CC(C)(C)c1ccc(S(=O)(=O)Nc2ccc(Cl)c3c2C(=O)N(c2cnccn2)C3=O)cc1 [Compound 184],16,24
Cn1cc(N2C(=O)c3c(Cl)ccc(NS(=O)(=O)c4ccc(C(C)(C)C)cc4)c3C2=O)c(C(=O)O)n1 [Compound 289],104,
